Tests used:
Assay type in all cases: functional
Details in all cases: route intravenous
[1] = system: Mus musculus; assay: Inhibitory effect on the growth of Colon 26 tumor cell line transplanted subcutaneously into mice at dose of 4 mg/kg/day x 5 administered intravenously
[2] = system: Mus musculus; assay: Inhibitory effect on the growth of Colon 26 tumor cell line transplanted subcutaneously into mice at dose of 2 mg/kg/day x 5 administered intravenously
[3] = system: Mus musculus; assay: Inhibitory effect on the growth of P388/CPT tumor cell line transplanted subcutaneously into mice at dose of 2 mg/kg/day x 5 administered intravenously
[4] = system: Mus musculus; assay: Inhibitory effect on the growth of P388/CPT tumor cell line transplanted subcutaneously into mice at dose of 4 mg/kg/day x 5 administered intravenously

SMILES	T/C [1] [%]	T/C [2] [%]	T/C [3] [%]	T/C [4] [%]
CCC1(O)C(=O)OCc2c1cc1n(c2=O)Cc2c-1nc1cc3c(cc1c2CCN)OCO3.O=C(O)C(F)(F)F (stereo not drawn)	49	55	65	36
CC[C@@]1(O)C(=O)OCc2c1cc1n(c2=O)Cc2cc3c(CN(C)C)c(O)ccc3nc2-1 [TOPOTECAN]	51	60	59	46
